# Measurements published in ChEMBL document CHEMBL1148572, “1-((S)-2-aminopropyl)-1H-indazol-6-ol: a potent peripherally acting 5-HT2 receptor agonist with ocular hypotensive activity” (J Med Chem, 2006).
# Key:
# [1] = molecular target: Glutamate receptor ionotropic kainate (Homo sapiens) (UniProt P39086+Q16478+Q16099+Q13002+Q13003); test: Inhibition of kainate receptor at 100 nM; format: protein-complex assay
# [2] = molecular target: Glutamate [NMDA] receptor (Homo sapiens) (UniProt Q05586+Q12879+Q13224+O15399+O60391+Q14957+Q8TCU5); test: Inhibition of agonist site of NMDA receptor at 1 nM; format: functional
# [3] = molecular target: Sodium-dependent noradrenaline transporter (Homo sapiens, UniProt P23975); test: Inhibition of NET at 10 uM
# [4] = Inhibition of P2Y purinergic receptor at 1 nM
# [5] = molecular target: Estrogen receptor (Homo sapiens) (UniProt Q92731+P03372); test: Inhibition of estrogen receptor at 10 uM; format: protein assay
# [6] = Inhibitory activity at site 2 of sodium channel at 10 uM
# [7] = molecular target: T1, Cysteinyl leukotriene receptor 1 (Homo sapiens) (UniProt Q9Y271); test: Inhibition of leukotriene D4 at 1 nM
# T1 sequence (whole entry): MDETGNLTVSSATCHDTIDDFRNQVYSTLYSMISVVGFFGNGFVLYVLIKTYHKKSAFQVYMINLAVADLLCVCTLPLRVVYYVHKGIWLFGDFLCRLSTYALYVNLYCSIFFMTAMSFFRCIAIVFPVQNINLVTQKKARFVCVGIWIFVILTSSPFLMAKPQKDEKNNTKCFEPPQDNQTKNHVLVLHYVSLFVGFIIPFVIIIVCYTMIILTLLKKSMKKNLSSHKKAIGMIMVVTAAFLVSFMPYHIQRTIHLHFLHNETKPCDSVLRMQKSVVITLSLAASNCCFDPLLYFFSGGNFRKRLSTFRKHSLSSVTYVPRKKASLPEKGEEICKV
# [8] = molecular target: T2, Atrial natriuretic peptide receptor 1 (Homo sapiens) (UniProt P16066); test: Inhibition of ANP A at 10 uM
# T2 sequence (whole entry): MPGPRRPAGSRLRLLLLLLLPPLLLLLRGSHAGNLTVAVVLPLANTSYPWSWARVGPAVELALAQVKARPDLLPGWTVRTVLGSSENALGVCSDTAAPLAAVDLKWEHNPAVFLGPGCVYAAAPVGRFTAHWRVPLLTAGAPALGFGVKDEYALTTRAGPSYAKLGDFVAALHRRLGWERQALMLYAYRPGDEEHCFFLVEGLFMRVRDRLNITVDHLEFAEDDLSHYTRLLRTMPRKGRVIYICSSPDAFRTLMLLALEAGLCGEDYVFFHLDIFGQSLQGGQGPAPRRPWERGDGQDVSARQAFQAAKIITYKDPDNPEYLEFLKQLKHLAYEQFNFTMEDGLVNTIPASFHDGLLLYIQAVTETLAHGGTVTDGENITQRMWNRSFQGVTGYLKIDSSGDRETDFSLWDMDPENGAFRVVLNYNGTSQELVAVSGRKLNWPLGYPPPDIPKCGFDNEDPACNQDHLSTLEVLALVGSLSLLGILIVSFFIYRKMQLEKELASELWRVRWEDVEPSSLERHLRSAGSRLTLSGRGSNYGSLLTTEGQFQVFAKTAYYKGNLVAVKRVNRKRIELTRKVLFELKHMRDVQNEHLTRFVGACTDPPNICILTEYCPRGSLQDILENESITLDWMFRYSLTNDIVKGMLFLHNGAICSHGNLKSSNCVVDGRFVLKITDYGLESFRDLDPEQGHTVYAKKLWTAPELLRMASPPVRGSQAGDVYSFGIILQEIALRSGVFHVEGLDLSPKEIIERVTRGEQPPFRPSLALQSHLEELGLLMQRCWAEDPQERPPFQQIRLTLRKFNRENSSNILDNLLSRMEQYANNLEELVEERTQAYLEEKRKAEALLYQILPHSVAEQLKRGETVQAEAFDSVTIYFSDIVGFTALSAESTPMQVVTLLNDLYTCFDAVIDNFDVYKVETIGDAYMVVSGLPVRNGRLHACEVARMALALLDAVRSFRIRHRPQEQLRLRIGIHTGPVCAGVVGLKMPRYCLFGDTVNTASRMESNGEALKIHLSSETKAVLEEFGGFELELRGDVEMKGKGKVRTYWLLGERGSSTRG
# [9] = molecular target: Platelet-activating factor receptor (Homo sapiens) (UniProt P25105); test: Inhibition of PAF at 1 nM
# [10] = molecular target: T3, B2 bradykinin receptor (Homo sapiens) (UniProt P30411); test: Inhibition of bradykinin 2 receptor at 1 nM
# T3 sequence (whole entry): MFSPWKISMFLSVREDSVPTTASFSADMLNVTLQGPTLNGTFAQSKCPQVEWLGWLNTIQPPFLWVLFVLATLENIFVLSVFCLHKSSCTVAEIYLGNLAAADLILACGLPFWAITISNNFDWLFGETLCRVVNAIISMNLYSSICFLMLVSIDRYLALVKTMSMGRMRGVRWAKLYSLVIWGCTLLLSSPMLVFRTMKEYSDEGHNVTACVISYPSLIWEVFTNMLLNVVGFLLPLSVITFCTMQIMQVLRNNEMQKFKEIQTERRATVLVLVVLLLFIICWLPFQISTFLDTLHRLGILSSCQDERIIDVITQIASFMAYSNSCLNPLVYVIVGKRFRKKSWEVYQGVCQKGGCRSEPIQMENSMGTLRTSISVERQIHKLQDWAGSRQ
# [11] = molecular target: T3, B2 bradykinin receptor (Homo sapiens); test: Inhibition of bradykinin 2 receptor at 100 nM
# [12] = molecular target: T4, Endothelin-1 receptor (Homo sapiens) (UniProt P25101); test: Inhibition of human recombinant endothelin 1 receptor 1 nM
# T4 sequence (whole entry): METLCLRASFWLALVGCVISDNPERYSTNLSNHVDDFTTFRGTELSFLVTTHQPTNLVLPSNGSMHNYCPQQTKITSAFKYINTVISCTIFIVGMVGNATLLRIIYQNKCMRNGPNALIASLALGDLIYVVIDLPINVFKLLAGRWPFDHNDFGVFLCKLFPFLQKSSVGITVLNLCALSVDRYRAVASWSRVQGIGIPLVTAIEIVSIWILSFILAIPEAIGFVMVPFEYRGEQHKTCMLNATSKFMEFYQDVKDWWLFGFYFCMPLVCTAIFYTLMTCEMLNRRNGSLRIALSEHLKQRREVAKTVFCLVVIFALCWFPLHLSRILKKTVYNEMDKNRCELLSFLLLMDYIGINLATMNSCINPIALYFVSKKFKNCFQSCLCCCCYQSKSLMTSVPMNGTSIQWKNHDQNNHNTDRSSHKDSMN
# [13] = molecular target: T4, Endothelin-1 receptor (Homo sapiens); test: Inhibition of human recombinant endothelin 1 receptor at 10 uM
# [14] = molecular target: Sodium-dependent serotonin transporter (Homo sapiens, UniProt P31645); test: Inhibitory activity against SERT
# [15] = molecular target: GABA-A receptor; agonist GABA site (Homo sapiens) (UniProt P14867+P47870+P28472+P48169+P34903+P18505+P47869+P31644+Q16445); test: Inhibition of agonist site of GABAA receptor at 1 nM; format: functional
# Sequence of Platelet-activating factor receptor (Homo sapiens) (P25105 whole entry): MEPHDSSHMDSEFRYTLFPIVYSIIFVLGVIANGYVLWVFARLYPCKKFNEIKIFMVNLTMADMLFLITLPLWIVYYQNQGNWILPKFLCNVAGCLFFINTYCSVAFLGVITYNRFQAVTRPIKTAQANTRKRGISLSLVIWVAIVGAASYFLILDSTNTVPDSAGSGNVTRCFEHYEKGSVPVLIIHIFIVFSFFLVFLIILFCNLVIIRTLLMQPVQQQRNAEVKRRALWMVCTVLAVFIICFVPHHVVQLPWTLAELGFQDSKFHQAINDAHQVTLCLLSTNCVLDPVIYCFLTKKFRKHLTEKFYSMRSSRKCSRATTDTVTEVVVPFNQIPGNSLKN
# Sequence of Sodium-dependent serotonin transporter (P31645 whole entry): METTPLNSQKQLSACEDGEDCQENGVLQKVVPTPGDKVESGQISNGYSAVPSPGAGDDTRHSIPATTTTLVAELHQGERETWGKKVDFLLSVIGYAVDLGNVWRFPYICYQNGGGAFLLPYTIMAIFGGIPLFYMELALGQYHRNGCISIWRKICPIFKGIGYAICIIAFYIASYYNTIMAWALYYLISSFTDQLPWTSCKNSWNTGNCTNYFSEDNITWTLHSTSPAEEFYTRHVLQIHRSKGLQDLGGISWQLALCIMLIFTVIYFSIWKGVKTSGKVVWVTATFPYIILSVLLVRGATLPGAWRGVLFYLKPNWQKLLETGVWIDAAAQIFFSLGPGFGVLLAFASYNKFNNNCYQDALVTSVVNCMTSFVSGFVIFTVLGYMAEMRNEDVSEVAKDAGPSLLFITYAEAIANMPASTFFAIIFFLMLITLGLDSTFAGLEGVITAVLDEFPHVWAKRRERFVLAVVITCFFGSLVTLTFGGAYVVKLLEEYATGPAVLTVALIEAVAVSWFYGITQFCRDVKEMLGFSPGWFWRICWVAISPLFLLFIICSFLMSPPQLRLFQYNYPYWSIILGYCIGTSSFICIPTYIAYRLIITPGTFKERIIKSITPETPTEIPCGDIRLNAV
# Sequence of Sodium-dependent noradrenaline transporter (P23975 whole entry): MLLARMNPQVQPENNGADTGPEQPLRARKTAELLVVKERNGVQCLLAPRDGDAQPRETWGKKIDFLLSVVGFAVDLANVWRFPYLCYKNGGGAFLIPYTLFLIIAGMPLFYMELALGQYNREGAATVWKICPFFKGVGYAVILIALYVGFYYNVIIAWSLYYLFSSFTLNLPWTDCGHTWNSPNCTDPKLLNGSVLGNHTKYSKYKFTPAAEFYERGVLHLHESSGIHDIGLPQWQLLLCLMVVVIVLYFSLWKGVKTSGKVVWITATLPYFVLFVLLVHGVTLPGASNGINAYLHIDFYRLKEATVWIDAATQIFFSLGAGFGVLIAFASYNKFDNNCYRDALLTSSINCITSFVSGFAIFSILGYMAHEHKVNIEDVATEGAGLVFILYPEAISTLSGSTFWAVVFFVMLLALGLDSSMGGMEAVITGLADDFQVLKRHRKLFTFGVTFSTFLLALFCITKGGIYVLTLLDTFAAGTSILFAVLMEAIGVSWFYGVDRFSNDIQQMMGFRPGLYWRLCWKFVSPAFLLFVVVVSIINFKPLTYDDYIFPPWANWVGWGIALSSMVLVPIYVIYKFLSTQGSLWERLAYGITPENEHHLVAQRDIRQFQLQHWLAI
smiles,measurement,setting,value
C[C@H](N)Cn1ncc2ccc(O)cc21,inhibition,[1],6.16%
same,inhibition,[2],14.9%
same,inhibition,[3],42.6%
same,inhibition,[4],-2.2%
same,inhibition,[5],17.7%
same,inhibition,[6],-0.61%
same,inhibition,[7],2.65%
same,inhibition,[8],-5.3%
same,inhibition,[9],-6.53%
same,inhibition,[10],-6.46%
same,inhibition,[11],0.41%
same,inhibition,[12],2.41%
same,inhibition,[13],-6.96%
same,Ki,[14],> 10 µM
same,inhibition,[15],15.2%
